Laboratory results as given in US9066965B1, “Purified limonin glucoside for prevention and treatment of chronic diseases” (The United States of America, as represented by the …, priority 2012, dated 2015).

Assays:
Assay type in all cases: in vivo, human
[1] = Serum/plasma concentrations of inflammatory markers
Protocol: (§1) Plasma concentrations of epidermal growth factor (EGF), interleukin-13 (IL-13), interleukin-1 receptor antagonist (IL-1Ra), and tumor necrosis factor α (TNF α) were analyzed in EDTA plasma on a Sector Imager 2400 instrument using a multiplex kits from MSD (Meso-Scale Discovery, Gaithersburg, Md.). Concentrations of C reactive protein (CRP), and complement 3 and 4 (C3, C4) were analyzed in serum by using an Integra 400 Plus Chemistry Analyzer, (Roche Diagnostics Corp., Indianapolis, Ind.). Serum amyloid A (SAA), soluble intracellular adhesion molecule-1 (sICAM-1), and soluble vascular cell adhesion molecule-1 (sVCAM-1) were tested in serum on a Sector Imager 2400 instrument using a multiplex kit from MSD (Meso-Scale Discovery, Gaithersburg, Md.).
(§2) Results are presented as means±SEM.

[2] = Serum lipids and lipoproteins
Source text: Serum lipids were part of the CMP performed at University of California Medical Center (UCDMC) by using the Beckman Coulter DxC800 instrument. Lipoproteins A1 and B were ascertained in EDTA plasma using a Cobas Integra 400 Plus instrument with Roche reagents (Roche Diagnostics Corp., Indianapolis, Ind.). Lipoproteins C2, C3 and E were quantified in serum using a Cobas Integra 400 Plus instrument with Kamiya reagents (Kamiya Biomedical Co., Seattle, Wash.).
as §2

[3] = system: complement fraction 3 (C3); experiment: Serum C3 concentration (Integra 400 Plus)
Protocol: as §1, §2

[4] = EDTA plasma, End LG, 500 mg/d, 56 days, n = 10, mean ± SEM
[5] = serum, End LG, 500 mg/d, 56 days, n = 10, mean ± SEM
[6] = End LG, 500 mg/d, 56 days, n = 10, mean ± SEM

`CC1(C)O[C@H]2CC(=O)OC[C@]23[C@H]2CC[C@@](C)([C@@H](O[C@@H]4O[C@H](CO)[C@@H](O)[C@H](O)[C@H]4O)c4ccoc4)[C@@]4(O[C@@H]4C(=O)O)[C@]2(C)C(=O)C[C@@H]13` [LG, limonin glucoside] showed an EGF [1, 4] of 106.02 ± 52.55 pg/mL, an IL-1Ra [1, 4] of 194.93 ± 27.03 pg/mL and an IL-13 [1, 4] of 2.42 ± 0.27 pg/mL. It also gave a TNF a [1, 4] of 0.58 ± 0.20 pg/mL, a C4 [1, 5] of 0.29 ± 0.02 mg/mL and a CRP [1, 5] of 1.64 ± 0.25 µg/mL. For the same molecule, the SAA [1, 5] was 4.06 ± 0.77 µg/mL, the sICAM-1 [1, 5] was 0.25 ± 0.02 µg/mL and the sVCAM-1 [1, 5] was 0.41 ± 0.04 µg/mL. The “effect on plasma EGF, IL-13, IL-1Ra, TNF α and serum CRP, SAA, sICAM-1, sVCAM-1, C4” value ([1]; vs end of placebo treatment) was “not altered”, the “Lipoprotein A1” value [2, 6] was 142.91 ± 4.18 mg/dL and the “Lipoprotein B” value [2, 6] was 114.5 ± 6.45 mg/dL. For the same molecule, the “Lipoprotein C2” value [2, 6] was 6.21 ± 0.50 mg/dL, the “Lipoprotein C3” value [2, 6] was 13.28 ± 1.05 mg/dL and the “Lipoprotein E” value [2, 6] was 4.91 ± 0.32 mg/dL. The “change in plasma concentrations of Apo B” value ([2]; Table 4) was “did not find any change”, the Cholesterol [2, 5] was 231.70 ± 8.83 mg/dL and the HDL-C [2, 5] was 44.20 ± 2.59 mg/dL. The “LDL-C (Calc)” value [2, 5] was 159.10 ± 7.37 mg/dL, the Non-HDL-C [2, 5] was 187.50 ± 10.63 mg/dL and the “Total-C:HDL-C” value [2, 5] was 5.47 ± 0.47. The Triglycerides [2, 5] was 142.60 ± 23.64 mg/dL, the “effect on serum total-, HDL-, LDL-, non-HDL-cholesterol, triglycerides, lipoproteins A1, B, C2, C3, E” value ([2]; vs end of placebo treatment) was “did not alter” and the C3 [3, 5] was 1.18 ± 0.05 mg/mL. For the same molecule, the “decrease of serum C3 concentration” value ([3]; vs end of placebo treatment, Integra 400 Plus, p=0.055) was 4.8%.
